Converted amounts (≈) assume the structure as drawn.
How the values were obtained:
[1] = Determination of water solubility in phosphate buffer; format: physicochemical; conditions: for solubility at 24 h: thermodynamic from solid; for water solubility compared with nitroxoline: conclusion in words
Description: Experimental instruments: 96-well filter plate (MSHVN4510 or MSHVN4550, Millipore); electronic digital display vortex mixer (MS3 Digital, IKA); multi-purpose vacuum pump (circulating water type, SHB-111, Zhengzhou Greatwall Scientific Industrial and Trade Co., Ltd.); balance (XSLT05, Mettler-Toledo); comfortable mixer (Eppendorf AG 22331 Hamburg, Eppendorf); liquid chromatography (LC-3AD, Shimadzu); mass spectrometry (API4000, Applied Biosystems, USA); sample injector (Anylytics AG System, CTC). Nitroxoline was prepared according to the method disclosed in Journal of Heterocyclic Chemistry, 1971, vol. 8, p 821 by Wisdom Pharmaceutical Co., Ltd.
Experimental process: 500 μL of phosphate buffer (pH=1.2, 4.5, 6.8 or 7.4) were added to a glass flask, to which 2 mg of compound powder were added. The flask was sealed with a cap and shaked on a mixer (VORTEX-GENIE2) at room temperature for 24 hours. The solution was subjected to vacuum filtration, and the filtrate was processed to determine the compound concentration by LC/MS/MS.

[2] = Stability in rat liver microsome; conditions: 2 μM, 37° C., 30 minutes
Description: Experimental instruments: thermostatic shaker (SHA-B, Guohua Electric Appliance Co., Ltd.); centrifuge (5810R, Eppendorf); mass spectrometry (API4000, Applied Biosystems, USA); liquid chromatography (LC-30AD, Shimadzu); sample injector (CTC Analytics AG System, CTC).
Experimental process: 25 μg/mL alamethicin (Aldrich), 5 mM magnesium chloride and 0.5 mg/mL microsome (XENOTECH) were added to 100 mM phosphate buffer to obtain a coenzyme-free reaction solution. A portion of the coenzyme-free reaction solution was added with 1 mM reductive nicotinamide adenine dinucleotide phosphate (Aldrich) and 5 mM uridine diphosphate glucuronic acid (Aldrich) to obtain a coenzyme-containing reaction solution. The working solution of the compound of the present invention was added to the two reaction solutions so that the final concentration of the compound was 2 μM. Immediately after mixing well, 50 μL of the solution were taken out as the 0 minute sample, and 50 μL of the remaining sample were taken out after incubating at 37° C. for 30 minutes. All the samples taken out were immediately processed to precipitate protein, and centrifuged to obtain a supernate for the determination of the compound concentration by LC/MS/MS.

[3] = Stability in dog liver microsome; conditions: 2 μM, 37° C., 30 minutes
[4] = Stability in human liver microsome; conditions: 2 μM, 37° C., 30 minutes
[5] = aqueous buffer, phosphate buffer pH 7.4, room temperature
[6] = simulated gastric fluid, phosphate buffer pH 1.2, room temperature

**Q.** With O=C(O)CCC(=O)OCOc1ccc([N+](=O)[O-])c2cccnc12 [Compound 8, 4-((5-nitroquinolin-8-yloxy)methoxy)-4-oxobutanoic acid] as the molecule, how does the solubility at 24 h [1, 5] read?
**A.** < 0.44 µg/mL

**Q.** Which results are given for O=C(CCCCCCCO)OCOc1ccc([N+](=O)[O-])c2cccnc12 [Compound 10, (5-nitroquinolin-8-yloxy)methyl 8-hydroxyoctanoate]?
**A.** Percentage of the compound remaining in rat liver microsome ([2]; with coenzyme): 0.02%; Percentage of the compound remaining in rat liver microsome ([2]; without coenzyme): 0.03%; solubility at 24 h [1, 5]: 39.1 µg/mL (≈ 108 µM); Percentage of the compound remaining in dog liver microsome ([3]; with coenzyme): 0.01%; Percentage of the compound remaining in dog liver microsome ([3]; without coenzyme): 0.04%; Percentage of the compound remaining in human liver microsome ([4]; with coenzyme): 0.01%; Percentage of the compound remaining in human liver microsome ([4]; without coenzyme): 0.04%

**Q.** For COC(=O)CCCCC(=O)OCOc1ccc([N+](=O)[O-])c2cccnc12 [Compound 11, methyl (5-nitroquinolin-8-yloxy)methyl adipate], which “Percentage of the compound remaining in rat liver microsome” value ([2]; with coenzyme) is on record?
**A.** 0.05%

**Q.** What about the “Percentage of the compound remaining in rat liver microsome” value ([2]; without coenzyme) of the same molecule?
**A.** 0.03%

**Q.** What about the solubility at 24 h [1, 5] of the same molecule?
**A.** 66.9 µg/mL (≈ 185 µM)

**Q.** And the “Percentage of the compound remaining in dog liver microsome” value ([3]; with coenzyme)?
**A.** 0.01%

**Q.** And the “Percentage of the compound remaining in dog liver microsome” value ([3]; without coenzyme)?
**A.** 0.04%

**Q.** And the “Percentage of the compound remaining in human liver microsome” value ([4]; with coenzyme)?
**A.** 0.01%

**Q.** And the “Percentage of the compound remaining in human liver microsome” value ([4]; without coenzyme)?
**A.** 0.01%

**Q.** What does the source list for CC(C)(C)OC(=O)N[C@@H](Cc1ccccc1)C(=O)OCOc1ccc([N+](=O)[O-])c2cccnc12 [Compound 13, (S)-(5-Nitroquinolin-8-yloxy)methyl 2-(tert-butoxycarbonylamino)-3-phenylpropionate]?
**A.** Percentage of the compound remaining in rat liver microsome ([2]; with coenzyme): 0.01%; Percentage of the compound remaining in rat liver microsome ([2]; without coenzyme): 0.02%; Percentage of the compound remaining in dog liver microsome ([3]; with coenzyme): 0.02%; Percentage of the compound remaining in dog liver microsome ([3]; without coenzyme): 0.02%; Percentage of the compound remaining in human liver microsome ([4]; with coenzyme): 0.01%; Percentage of the compound remaining in human liver microsome ([4]; without coenzyme): 0.02%

**Q.** For CC(=O)N[C@@H](CC(C)C)C(=O)NCC(=O)OCOc1ccc([N+](=O)[O-])c2cccnc12 [Compound 15, (S)-(5-nitroquinolin-8-yloxy)methyl 2-(2-acetamido-4-methylpentanamido)acetate], which solubility at 24 h [1, 5] is on record?
**A.** 205 µg/mL (≈ 475 µM)

**Q.** For CSC[C@H](NC(C)=O)C(=O)OCOc1ccc([N+](=O)[O-])c2cccnc12 [Compound 16, (R)-(5-nitroquinolin-8-yloxy)methyl 2-acetamido-3-(methylthio)propionate], which solubility at 24 h [1, 5] is on record?
**A.** 254 µg/mL (≈ 669 µM)

**Q.** And the solubility at 24 h [1, 6]?
**A.** 443 µg/mL (≈ 1170 µM)

**Q.** Which solubility at 24 h [1, 5] does the source give for CC(C)C(=O)N1CCC[C@@H]1C(=O)OCOc1ccc([N+](=O)[O-])c2cccnc12 [Compound 23, (R)-(5-nitroquinolin-8-yloxy)methyl 1-isopropionylpyrrolidine-2-carboxylate] here?
**A.** 818 µg/mL (≈ 2110 µM)

**Q.** What about the “water solubility compared with nitroxoline” value [1] of the same molecule?
**A.** increased by several times

**Q.** What about the solubility at 24 h [1, 6] of the same molecule?
**A.** 945 µg/mL (≈ 2440 µM)

**Q.** With CC(C)(C)C(=O)N1CCC[C@@H]1C(=O)OCOc1ccc([N+](=O)[O-])c2cccnc12 [Compound 24, (R)-(5-nitroquinolin-8-yloxy)methyl 1-pivaloylpyrrolidine-2-carboxylate] as the molecule, how does the solubility at 24 h [1, 5] read?
**A.** 73.6 µg/mL (≈ 183 µM)

**Q.** What about the solubility at 24 h [1, 6] of the same molecule?
**A.** 942 µg/mL (≈ 2350 µM)

**Q.** Which solubility at 24 h [1, 5] does the source give for O=C(OCOc1ccc([N+](=O)[O-])c2cccnc12)[C@@H]1CCCN1C(=O)c1ccccn1 [Compound 25, (S)-(5-nitroquinolin-8-yloxy)methyl 1-pyridineformylpyrrolidine-2-carboxylate] here?
**A.** 275 µg/mL (≈ 651 µM)

**Q.** With CC(=O)N[C@@H](Cc1ccc(O)cc1)C(=O)N1CCC[C@H]1C(=O)OCOc1ccc([N+](=O)[O-])c2cccnc12 [Compound 28, (S)-(5-nitroquinolin-8-yloxy)methyl 1-((S)-2-acetamido-3-(4-hydroxyphenyl)propionyl)pyrrolidine-2-carboxylate] as the molecule, how does the solubility at 24 h [1, 5] read?
**A.** 25.1 µg/mL (≈ 48.1 µM)

**Q.** What about the solubility at 24 h [1, 6] of the same molecule?
**A.** 342 µg/mL (≈ 654 µM)

**Q.** For CC(=O)N[C@@H](CO)C(=O)N1CCC[C@H]1C(=O)OCOc1ccc([N+](=O)[O-])c2cccnc12 [Compound 30, (S)-(5-nitroquinolin-8-yloxy)methyl 1-((S)-2-acetamido-3-hydroxypropionyl)pyrrolidine-2-carboxylate], which solubility at 24 h [1, 5] is on record?
**A.** < 0.25 µg/mL

**Q.** And the “water solubility compared with nitroxoline” value [1]?
**A.** increased by several times

**Q.** And the solubility at 24 h [1, 6]?
**A.** 940 µg/mL (≈ 2110 µM)

**Q.** For COCC(=O)OCOc1ccc([N+](=O)[O-])c2cccnc12 [Compound 31, (5-nitroquinolin-8-yloxy)methyl 2-methoxyacetate], which solubility at 24 h [1, 5] is on record?
**A.** 10.8 µg/mL (≈ 37.1 µM)

**Q.** With O=C(OCOc1ccc([N+](=O)[O-])c2cccnc12)C1CCC1 [Compound 32, (5-nitroquinolin-8-yloxy)methyl cyclobutanecarboxylate] as the molecule, how does the solubility at 24 h [1, 5] read?
**A.** 28.4 µg/mL (≈ 94.1 µM)

**Q.** Which solubility at 24 h [1, 5] does the source give for CC(=O)Oc1ccccc1C(=O)OCOc1ccc([N+](=O)[O-])c2cccnc12 [Compound 34, (5-nitroquinolin-8-yloxy)methyl 2-acetoxybenzoate] here?
**A.** 6.67 µg/mL (≈ 17.4 µM)

**Q.** With O=C(COc1ccc(Cl)cc1Cl)OCOc1ccc([N+](=O)[O-])c2cccnc12 [Compound 35, (5-nitroquinolin-8-yloxy)methyl 2-(2,4-dichlorophenoxy)acetate] as the molecule, how does the solubility at 24 h [1, 5] read?
**A.** 0.04 µg/mL (≈ 0.0945 µM)

**Q.** For O=C(CN1CCOCC1)OCOc1ccc([N+](=O)[O-])c2cccnc12 [Compound 36, (5-nitroquinolin-8-yloxy)methyl 2-morpholinoacetate], which solubility at 24 h [1, 5] is on record?
**A.** 298 µg/mL (≈ 858 µM)

**Q.** With CCCCCC(=O)OCOc1ccc([N+](=O)[O-])c2cccnc12 [Compound 40, (5-nitroquinolin-8-yloxy)methyl hexanoate] as the molecule, how does the solubility at 24 h [1, 5] read?
**A.** 7.4 µg/mL (≈ 23.2 µM)

**Q.** With CCCCCCCC(=O)OCOc1ccc([N+](=O)[O-])c2cccnc12 [Compound 41, (5-nitroquinolin-8-yloxy)methyl octanoate] as the molecule, how does the solubility at 24 h [1, 5] read?
**A.** < 0.4 µg/mL

**Q.** Which solubility at 24 h [1, 5] does the source give for CCCCCCCCCC(=O)OCOc1ccc([N+](=O)[O-])c2cccnc12 [Compound 42, (5-nitroquinolin-8-yloxy)methyl decanoate] here?
**A.** < 0.26 µg/mL

**Q.** With CCCCCCCCCCCC(=O)OCOc1ccc([N+](=O)[O-])c2cccnc12 [Compound 43, (5-nitroquinolin-8-yloxy)methyl dodecanoate] as the molecule, how does the solubility at 24 h [1, 5] read?
**A.** < 0.25 µg/mL

**Q.** Which solubility at 24 h [1, 5] does the source give for O=C1CCCC(Oc2ccc([N+](=O)[O-])c3cccnc23)O1 (stereo not drawn) [Compound 44, 6-(5-nitroquinolin-8-yloxy)-tetrahydropyran-2-one] here?
**A.** 19.9 µg/mL (≈ 68.9 µM)

**Q.** Which results are given for O=C(CCCCC(=O)OCOc1ccc([N+](=O)[O-])c2cccnc12)OCOc1ccc([N+](=O)[O-])c2cccnc12 [Compound 46, bis(5-nitroquinolin-8-yloxy)-methyl adipate]?
**A.** Percentage of the compound remaining in rat liver microsome ([2]; with coenzyme): 0.00%; Percentage of the compound remaining in rat liver microsome ([2]; without coenzyme): 0.05%; Percentage of the compound remaining in dog liver microsome ([3]; with coenzyme): 0.01%; Percentage of the compound remaining in dog liver microsome ([3]; without coenzyme): 0.03%; Percentage of the compound remaining in human liver microsome ([4]; with coenzyme): 0.00%; Percentage of the compound remaining in human liver microsome ([4]; without coenzyme): 0.06%

**Q.** With CC(C)OC(=O)OCOP(=O)(O)OCOc1ccc([N+](=O)[O-])c2cccnc12 [Compound 72, (hydroxy((5-nitroquinolin-8-yloxy)methoxy)phosphoryloxy)methyl isopropyl carbonate] as the molecule, how does the solubility at 24 h [1, 5] read?
**A.** 1040 µg/mL (≈ 2490 µM)

**Q.** What about the “water solubility compared with nitroxoline” value [1] of the same molecule?
**A.** increased by several times

**Q.** With Cc1oc(=O)oc1COc1ccc([N+](=O)[O-])c2cccnc12 [Compound 77, 4-methyl-5-((5-nitroquinolin-8-yloxy)methyl)-1,3-dioxol-2-one] as the molecule, how does the solubility at 24 h [1, 5] read?
**A.** 21.2 µg/mL (≈ 70.3 µM)
